What was measured:
[1] = tested on: BALB/c mice; assay: Mouse anti-Abeta IgG isotyping (Th1/Th2 response); assay type: in vivo; settings: n=4; for Anti-Abeta antibody isotype: peptide vaccination without adjuvant
Text: To further confirm the inflammation issue, we detected type one and type two T cell response by using the mouse anti-Abeta IgG isotyping method. […] (see FIG. 10).

[2] = tested on: BALB/c mice; assay: Antibody titer by ELISA after adjuvant-free subcutaneous Abeta peptide vaccination; assay type: in vivo, mouse; settings: boost 50 ug/mice six months post third inoculation; ELISA 10 days later; no adjuvant
Protocol: Peptides: Aβ 1-42 and related peptides were obtained from Synpep (Dublin, Calif.). Peptides for vaccination were reconstituted to 10 mg/ml in DMSO and further diluted to 2 mg/ml with phosphate buffered saline.
Mice: 10 weeks old female BALB/c mice from the Jackson laboratories were housed in Varian standard cages including amber igloos and vaccinated when 14 weeks old. A total of 28 mice were grouped into 7 vaccination groups each with four animals. Differently mutated Aβ1-42 peptides were used for each group and a 1×PBS (also containing 10% DMSO) as a control group. Initial subcutaneous vaccination began at 100 μg peptide in 100 μl VEHICLE and subsequent booster vaccinations proceeded at 100 μg peptide (100 μl) at two weeks intervals. A third inoculation was carried out with 50 μg peptide in 100 μl.
Bleeding and plasma collection procedures: 10 days after injection, mice were bled by submandibular phlebotomy into EDTA tubes, and plasma was separated by centrifugation at 1500 g for 20 minutes with StatSampler from StatSpin (MA). Plasma were isolated by centrifugation and frozen at −80° C.
Antibody titer determination: Anti-amyloid beta antibody (6E10) was purchased from Signet Laboratories (Dedham, Mass.) and used as positive control. […] Plates were read at 450 nm/630 nm, and samples with readings three times higher than controls were considered positive. […]

[3] = tested on: mice; assay: T cell epitope mapping: antibody production after vaccination with DCs treated with Abeta fragments (FIG. 11); assay type: in vivo, mouse; settings: two vaccinations with DCs, 1×10^6 cells/mice, treated with 20 μg/million cell; ELISA 1:800 dilutions
Text: FIG. 11. Mapping result of T cell epitope with Abeta fragment carrying Dutch mutation by ELISA.

[4] = tested on: patients aged 50 to 85 years with probable AD; settings: with adjuvant QS-21 and polysorbate 80, cited from earlier work

Row | Substance | Anti-Abeta antibody isotype [1] | Antibody production [3] | also measured
1 | PFDM: Abeta 1-42 with both Flemish and Dutch mutation, aa16-24 KLVFFGQDV | IgG2a response | – | –
2 | PDM: Abeta 1-42 with Dutch mutation, aa16-24 KLVFFAQDV | – | – | Long term antibody and memory response after boost [2]: induce long term antibody response and with a good memory response; Th response by antibody isotyping with adjuvant ([1]; adjuvant MPL treated vaccine compared to no adjuvant): adjuvant clearly induces a Th1 response
3 | DAEFRHDSGYEVHHQKLVFFAQDVGSNKGAIIGLM [Abeta 1-35 carrying Dutch mutation, Aβ 1-35 with Dutch mutation] | – | antibody production | –
4 | AN1792: wild type amyloid beta 1-42 peptide used as a vaccine with adjuvant QS-21 and polysorbate 80 | – | – | Occurrence of meningoencephalitis, subset of patients ([4]; Phase II): 6%; Clinical benefits in follow up study of vaccinated patients [4]: reduced AD-like pathology and improved cognition
5 | PFM: Abeta 1-42 with Flemish mutation, aa16-24 KLVFFGEDV | IgG2a response | – | –
6 | Abeta 1-25: Abeta fragment 1-25 [reference compound] | – | no antibody production | –

From patent publication US8188046B2, “Amyloid beta peptides and methods of use” (University of South Florida, priority 2006, dated 2012)
